Data taken from ChEMBL document CHEMBL5649169 (ChemMedChem, 2018).

Tests used:
[1] = target: Phosphoprotein associated with glycosphingolipid-enriched microdomains 1 (Homo sapiens) (UniProt Q9NWQ8); note: assay method not described here
[2] = target: X-ray repair cross-complementing protein 5 (Homo sapiens) (UniProt P13010); note: assay method not described here
[3] = target: TGF-beta receptor type-2 (Homo sapiens) (UniProt P37173); note: assay method not described here
[4] = target: Very-long-chain 3-oxoacyl-CoA reductase (Homo sapiens) (UniProt Q53GQ0); note: assay method not described here
[5] = target: Rho-associated protein kinase 1 (Homo sapiens) (UniProt Q13464); note: assay method not described here
[6] = target: Proteasome Macropain subunit (Homo sapiens) (UniProt P49721); note: assay method not described here
[7] = target: Mitogen-activated protein kinase kinase kinase 20 (Homo sapiens) (UniProt Q9NYL2); note: assay method not described here
[8] = target: Protein phosphatase 1G (Homo sapiens) (UniProt O15355); note: assay method not described here
[9] = target: Cytochrome b-c1 complex subunit 1, mitochondrial (Homo sapiens) (UniProt P31930); note: assay method not described here
[10] = target: T-complex protein 1 subunit zeta (Homo sapiens) (UniProt P40227); note: assay method not described here
[11] = target: Glycine--tRNA ligase (Homo sapiens) (UniProt P41250); note: assay method not described here
[12] = target: Eukaryotic translation initiation factor 4H (Homo sapiens) (UniProt Q15056); note: assay method not described here
[13] = target: Dihydrolipoyl dehydrogenase, mitochondrial (Homo sapiens) (UniProt P09622); note: assay method not described here
[14] = target: Ran-specific GTPase-activating protein (Homo sapiens) (UniProt P43487); note: assay method not described here
[15] = target: ATP-citrate synthase (Homo sapiens) (UniProt P53396); note: assay method not described here
[16] = target: Transmembrane protein 33 (Homo sapiens) (UniProt P57088); note: assay method not described here
Ephrin type-B receptor 6 = Ephrin type-B receptor 6 (Homo sapiens, UniProt O15197); test: Inhibition of Nano Luc-fused full length C-terminal EPHB6 (unknown origin) expressed in HEK293T cells using NanoGlo as substrate incubated for 2 hrs in presence of tracer by NanoBRET assay; type: cell-based
[17] = target: cAMP-dependent protein kinase type II-alpha regulatory subunit (Homo sapiens) (UniProt P13861); note: assay method not described here
Sequence of cAMP-dependent protein kinase type II-alpha regulatory subunit (Homo sapiens) (P13861 whole entry): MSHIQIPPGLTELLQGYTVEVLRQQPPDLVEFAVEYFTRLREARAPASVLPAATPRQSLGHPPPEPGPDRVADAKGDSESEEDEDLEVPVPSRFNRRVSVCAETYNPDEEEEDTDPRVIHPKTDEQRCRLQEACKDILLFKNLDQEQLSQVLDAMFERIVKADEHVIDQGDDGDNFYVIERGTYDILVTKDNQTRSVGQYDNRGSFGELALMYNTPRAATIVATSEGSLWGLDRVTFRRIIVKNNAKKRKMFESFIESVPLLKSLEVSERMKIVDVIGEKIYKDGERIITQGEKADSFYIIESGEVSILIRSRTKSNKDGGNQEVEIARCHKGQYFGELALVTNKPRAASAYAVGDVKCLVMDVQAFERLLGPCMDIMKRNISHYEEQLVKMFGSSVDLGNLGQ

[18] = target: Small ribosomal subunit protein mS27 (Homo sapiens) (UniProt Q92552); note: assay method not described here
[19] = target: ATP synthase F(0) complex subunit k, mitochondrial (Homo sapiens) (UniProt Q96IX5); note: assay method not described here
Sequence of ATP synthase F(0) complex subunit k, mitochondrial (Homo sapiens) (Q96IX5 whole entry, one chain of several): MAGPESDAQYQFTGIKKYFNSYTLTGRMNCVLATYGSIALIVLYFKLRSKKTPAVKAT

[20] = target: Neuronal migration protein doublecortin (Homo sapiens) (UniProt O43602); note: assay method not described here
[21] = target: Large ribosomal subunit protein uL2 (Homo sapiens) (UniProt P62917); note: assay method not described here
[22] = target: Tyrosine-protein kinase SYK (Homo sapiens) (UniProt P43405); note: assay method not described here
[23] = target: Heme oxygenase 2 (Homo sapiens) (UniProt P30519); note: assay method not described here
Sequence of Heme oxygenase 2 (Homo sapiens) (P30519 whole entry): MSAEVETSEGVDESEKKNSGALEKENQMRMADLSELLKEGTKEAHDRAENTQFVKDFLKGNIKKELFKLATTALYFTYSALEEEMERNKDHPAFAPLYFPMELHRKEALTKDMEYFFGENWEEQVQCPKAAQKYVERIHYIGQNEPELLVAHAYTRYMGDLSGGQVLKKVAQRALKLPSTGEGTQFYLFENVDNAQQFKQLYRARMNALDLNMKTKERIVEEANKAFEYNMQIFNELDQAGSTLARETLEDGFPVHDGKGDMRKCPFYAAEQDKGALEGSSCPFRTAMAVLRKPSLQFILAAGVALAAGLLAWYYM

[24] = target: Vitamin K epoxide reductase complex subunit 1-like protein 1 (Homo sapiens) (UniProt Q8N0U8); note: assay method not described here
[25] = target: GTP-binding nuclear protein Ran (Homo sapiens) (UniProt P62826); note: assay method not described here
[26] = target: Leucine-rich repeat-containing protein 59 (Homo sapiens) (UniProt Q96AG4); note: assay method not described here
[27] = target: WD repeat-containing protein 5 (Homo sapiens) (UniProt P61964); note: assay method not described here
[28] = target: Dual specificity mitogen-activated protein kinase kinase 5 (Homo sapiens) (UniProt Q13163); note: assay method not described here
[29] = target: Large ribosomal subunit protein uL15 (Homo sapiens) (UniProt P46776); note: assay method not described here
[30] = target: Cytochrome c oxidase subunit 2 (Homo sapiens) (UniProt P00403); note: assay method not described here
[31] = target: Eukaryotic translation initiation factor 5B (Homo sapiens) (UniProt O60841); note: assay method not described here
Sequence of Eukaryotic translation initiation factor 5B (Homo sapiens) (O60841 whole entry): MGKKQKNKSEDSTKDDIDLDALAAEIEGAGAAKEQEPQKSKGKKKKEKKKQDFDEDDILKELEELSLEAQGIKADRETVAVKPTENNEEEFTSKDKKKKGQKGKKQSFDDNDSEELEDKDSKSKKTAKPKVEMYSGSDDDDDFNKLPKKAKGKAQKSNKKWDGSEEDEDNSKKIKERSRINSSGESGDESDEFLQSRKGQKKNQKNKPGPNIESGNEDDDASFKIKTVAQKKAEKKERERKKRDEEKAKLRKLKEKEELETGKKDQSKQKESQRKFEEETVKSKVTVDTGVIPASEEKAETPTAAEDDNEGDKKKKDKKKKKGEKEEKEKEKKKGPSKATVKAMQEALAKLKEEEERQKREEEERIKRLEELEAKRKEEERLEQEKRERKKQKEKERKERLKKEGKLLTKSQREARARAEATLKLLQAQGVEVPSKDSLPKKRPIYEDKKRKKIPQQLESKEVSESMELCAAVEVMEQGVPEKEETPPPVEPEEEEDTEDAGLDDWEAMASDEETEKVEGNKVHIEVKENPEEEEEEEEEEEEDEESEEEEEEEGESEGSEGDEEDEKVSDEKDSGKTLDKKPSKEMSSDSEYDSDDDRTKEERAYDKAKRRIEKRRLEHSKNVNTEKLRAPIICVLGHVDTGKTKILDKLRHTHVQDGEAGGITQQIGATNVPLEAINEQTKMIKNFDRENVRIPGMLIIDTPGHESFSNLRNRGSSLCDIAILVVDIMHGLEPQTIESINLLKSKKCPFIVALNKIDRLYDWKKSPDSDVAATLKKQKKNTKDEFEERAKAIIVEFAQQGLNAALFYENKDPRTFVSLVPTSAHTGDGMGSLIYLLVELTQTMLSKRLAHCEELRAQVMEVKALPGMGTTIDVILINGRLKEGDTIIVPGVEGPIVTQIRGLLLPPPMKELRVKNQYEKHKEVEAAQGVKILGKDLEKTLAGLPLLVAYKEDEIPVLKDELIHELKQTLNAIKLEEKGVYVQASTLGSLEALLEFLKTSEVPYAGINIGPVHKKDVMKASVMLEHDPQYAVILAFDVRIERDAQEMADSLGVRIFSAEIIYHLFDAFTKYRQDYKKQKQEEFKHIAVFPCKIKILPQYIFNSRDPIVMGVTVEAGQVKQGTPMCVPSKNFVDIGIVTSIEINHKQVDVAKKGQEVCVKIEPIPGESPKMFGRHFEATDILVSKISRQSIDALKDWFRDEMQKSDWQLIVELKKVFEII

[32] = target: Heterogeneous nuclear ribonucleoprotein U (Homo sapiens) (UniProt Q00839); note: assay method not described here
[33] = target: Putative divalent cation/proton antiporter TMEM165 (Homo sapiens) (UniProt Q9HC07); note: assay method not described here
[34] = target: Nucleophosmin (Homo sapiens) (UniProt P06748); note: assay method not described here
[35] = target: E3 ubiquitin-protein ligase RNF213 (Homo sapiens) (UniProt Q63HN8); note: assay method not described here
[36] = target: Serine/threonine-protein kinase TAO1 (Homo sapiens) (UniProt Q7L7X3); note: assay method not described here
Sequence of Serine/threonine-protein kinase TAO1 (Homo sapiens) (Q7L7X3 whole entry): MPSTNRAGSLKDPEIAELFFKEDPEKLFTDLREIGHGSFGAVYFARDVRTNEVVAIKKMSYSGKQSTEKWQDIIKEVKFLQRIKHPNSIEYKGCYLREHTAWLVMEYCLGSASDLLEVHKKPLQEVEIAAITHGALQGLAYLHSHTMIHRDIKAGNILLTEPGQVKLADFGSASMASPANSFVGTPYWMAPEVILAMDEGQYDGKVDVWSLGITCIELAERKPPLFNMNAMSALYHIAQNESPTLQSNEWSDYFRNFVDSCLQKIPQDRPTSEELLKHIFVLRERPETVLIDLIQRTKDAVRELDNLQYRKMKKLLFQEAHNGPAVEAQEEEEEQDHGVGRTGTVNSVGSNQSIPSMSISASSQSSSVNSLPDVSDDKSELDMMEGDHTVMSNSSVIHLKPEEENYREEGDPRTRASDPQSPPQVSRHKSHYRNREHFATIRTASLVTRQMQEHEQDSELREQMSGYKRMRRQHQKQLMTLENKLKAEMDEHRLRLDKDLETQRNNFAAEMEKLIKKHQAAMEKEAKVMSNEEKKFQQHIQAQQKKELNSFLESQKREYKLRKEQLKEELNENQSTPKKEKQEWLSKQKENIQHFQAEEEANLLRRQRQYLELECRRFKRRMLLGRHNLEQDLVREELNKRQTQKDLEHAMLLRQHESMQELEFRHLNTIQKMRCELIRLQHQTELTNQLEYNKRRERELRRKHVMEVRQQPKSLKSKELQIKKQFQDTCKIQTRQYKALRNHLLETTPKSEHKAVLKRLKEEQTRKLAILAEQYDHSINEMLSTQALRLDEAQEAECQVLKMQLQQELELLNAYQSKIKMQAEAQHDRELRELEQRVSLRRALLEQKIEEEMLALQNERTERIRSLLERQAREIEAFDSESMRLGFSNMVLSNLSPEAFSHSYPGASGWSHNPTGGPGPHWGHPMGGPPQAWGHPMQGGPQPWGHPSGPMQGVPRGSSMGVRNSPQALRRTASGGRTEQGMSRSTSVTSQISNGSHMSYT

[37] = target: Glyceraldehyde-3-phosphate dehydrogenase (Homo sapiens) (UniProt P04406); note: assay method not described here
Fascin (Homo sapiens) = Fascin (Homo sapiens) (UniProt Q16658)
[38] = target: Serine hydroxymethyltransferase, mitochondrial (Homo sapiens) (UniProt P34897); note: assay method not described here
[39] = target: ATP synthase F(0) complex subunit f, mitochondrial (Homo sapiens) (UniProt P56134); note: assay method not described here
[40] = target: Sister chromatid cohesion protein PDS5 homolog A (Homo sapiens) (UniProt Q29RF7); note: assay method not described here
[41] = target: Cyclin-dependent kinase 1 (Homo sapiens) (UniProt P06493); note: assay method not described here
[42] = target: Heterogeneous nuclear ribonucleoprotein A/B (Homo sapiens) (UniProt Q99729); note: assay method not described here
[43] = target: Protein FAM83B (Homo sapiens) (UniProt Q5T0W9); note: assay method not described here
Sequence of Protein FAM83B (Homo sapiens) (Q5T0W9 whole entry): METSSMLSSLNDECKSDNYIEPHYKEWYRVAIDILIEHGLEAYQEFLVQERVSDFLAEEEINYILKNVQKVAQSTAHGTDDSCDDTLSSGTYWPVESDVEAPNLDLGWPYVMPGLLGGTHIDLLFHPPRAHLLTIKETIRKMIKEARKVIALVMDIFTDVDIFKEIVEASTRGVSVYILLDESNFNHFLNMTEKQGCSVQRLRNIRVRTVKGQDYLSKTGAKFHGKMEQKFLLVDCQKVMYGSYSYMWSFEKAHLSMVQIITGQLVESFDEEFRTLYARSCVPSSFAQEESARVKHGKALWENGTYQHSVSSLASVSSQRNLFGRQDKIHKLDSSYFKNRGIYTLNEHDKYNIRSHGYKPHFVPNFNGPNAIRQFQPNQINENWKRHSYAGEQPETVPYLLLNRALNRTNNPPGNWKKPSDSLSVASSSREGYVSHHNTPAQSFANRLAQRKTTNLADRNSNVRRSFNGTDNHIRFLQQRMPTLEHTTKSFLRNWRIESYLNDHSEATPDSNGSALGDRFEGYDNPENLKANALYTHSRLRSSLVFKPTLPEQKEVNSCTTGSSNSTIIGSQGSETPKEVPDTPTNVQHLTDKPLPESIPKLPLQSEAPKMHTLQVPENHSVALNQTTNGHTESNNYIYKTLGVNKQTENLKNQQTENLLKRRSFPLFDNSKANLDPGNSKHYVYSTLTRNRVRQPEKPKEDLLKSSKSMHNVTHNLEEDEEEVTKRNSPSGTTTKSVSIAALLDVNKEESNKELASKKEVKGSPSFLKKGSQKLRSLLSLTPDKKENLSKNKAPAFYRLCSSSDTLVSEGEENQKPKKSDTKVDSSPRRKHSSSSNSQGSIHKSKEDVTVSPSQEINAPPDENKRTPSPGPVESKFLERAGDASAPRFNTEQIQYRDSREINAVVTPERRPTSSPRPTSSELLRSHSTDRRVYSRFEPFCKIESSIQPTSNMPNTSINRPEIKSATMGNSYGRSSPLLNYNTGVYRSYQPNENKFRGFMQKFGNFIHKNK
Throughout, for ED50: assay method not described here.

Sequence of X-ray repair cross-complementing protein 5 (Homo sapiens) (P13010 whole entry): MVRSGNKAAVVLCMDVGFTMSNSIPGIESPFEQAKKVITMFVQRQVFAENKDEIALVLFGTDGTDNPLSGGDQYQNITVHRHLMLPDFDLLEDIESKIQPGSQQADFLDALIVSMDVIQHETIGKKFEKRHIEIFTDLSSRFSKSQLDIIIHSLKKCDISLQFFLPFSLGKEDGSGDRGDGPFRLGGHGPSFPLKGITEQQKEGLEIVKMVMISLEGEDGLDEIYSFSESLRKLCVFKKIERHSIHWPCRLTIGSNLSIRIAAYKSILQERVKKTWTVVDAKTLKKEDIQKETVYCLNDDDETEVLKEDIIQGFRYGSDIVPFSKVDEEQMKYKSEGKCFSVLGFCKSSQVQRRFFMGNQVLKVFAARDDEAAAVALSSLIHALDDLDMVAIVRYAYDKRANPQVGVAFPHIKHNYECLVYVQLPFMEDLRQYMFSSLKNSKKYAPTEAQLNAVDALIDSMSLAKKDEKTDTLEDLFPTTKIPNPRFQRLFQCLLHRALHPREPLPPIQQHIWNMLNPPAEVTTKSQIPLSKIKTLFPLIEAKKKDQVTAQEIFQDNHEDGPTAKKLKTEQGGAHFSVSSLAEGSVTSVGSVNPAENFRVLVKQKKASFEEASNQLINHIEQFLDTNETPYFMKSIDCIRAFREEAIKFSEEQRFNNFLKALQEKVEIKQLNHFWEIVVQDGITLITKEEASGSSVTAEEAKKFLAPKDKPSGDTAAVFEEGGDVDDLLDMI

## Cc1ccc(C(=O)Nc2cccc(C(F)(F)F)c2)cc1Nc1nc(-c2cccnc2)nc2c1cnn2C
[1]
  ED50: 16.8 µM
[2]
  ED50: 0.0264 µM
[3]
  ED50: 35.5 µM
[4]
  ED50: 0.0533 µM
[5]
  ED50: 11 µM
[6]
  ED50: 3.31 µM
[7]
  ED50: 0.907 µM
[8]
  ED50: 0.442 µM
[9]
  ED50: 65.5 µM
[10]
  ED50: 5.44 µM
[11]
  ED50: 0.0374 µM
[12]
  ED50: 90.6 µM
[13]
  ED50: 11.1 µM
[14]
  ED50: 3.63 µM
[15]
  ED50: 12.3 µM
[16]
  ED50: 4.89 µM
Ephrin type-B receptor 6
  IC50: 4.48 µM
[17]
  ED50: 8.24 µM
[18]
  ED50: 0.099 µM
[19]
  ED50: 128 µM
[20]
  ED50: 0.536 µM
[21]
  ED50: 0.0503 µM
[22]
  ED50: 3.85 µM
[23]
  ED50: 4.08 µM
[24]
  ED50: 5.89 µM
[25]
  ED50: 4.29 µM
[26]
  ED50: 0.163 µM
[27]
  ED50: 0.0527 µM
[28]
  ED50: 5.94 µM
[29]
  ED50: 5.95 µM
[30]
  ED50: 0.449 µM
[31]
  ED50: 41.8 µM
[32]
  ED50: 0.0195 µM
[33]
  ED50: 8.83 µM
[34]
  ED50: 0.00826 µM
[35]
  ED50: 53.8 µM
[36]
  ED50: 11.2 µM
[37]
  ED50: 8.39 µM
Fascin (Homo sapiens)
  ED50: 0.0186 µM
[38]
  ED50: 58.3 µM
[39]
  ED50: 0.0206 µM
[40]
  ED50: 0.978 µM
[41]
  ED50: 3.8 µM
[42]
  ED50: 0.0215 µM
[43]
  ED50: 1380 µM

## Cc1ccc(C(=O)Nc2cccc(C(F)(F)F)c2)cc1Nc1nc(-c2cccnc2)nc2nn(C)cc12
[1]
  ED50: 1.77 µM
[2]
  ED50: 10.3 µM
[3]
  ED50: 0.00886 µM
[4]
  ED50: 0.00539 µM
[5]
  ED50: 2.23 µM
[6]
  ED50: 0.0536 µM
[7]
  ED50: 7.75 µM
[8]
  ED50: 35 µM
[9]
  ED50: 0.00513 µM
[10]
  ED50: 0.677 µM
[11]
  ED50: 17.6 µM
[12]
  ED50: 10.8 µM
[13]
  ED50: 10.8 µM
[14]
  ED50: 8.14 µM
[15]
  ED50: 21.4 µM
[16]
  ED50: 0.0053 µM
Ephrin type-B receptor 6
  IC50: > 50 µM
[17]
  ED50: 0.325 µM
[18]
  ED50: 0.835 µM
[19]
  ED50: 0.0812 µM
[20]
  ED50: 9.4 µM
[21]
  ED50: 0.121 µM
[22]
  ED50: 0.216 µM
[23]
  ED50: 0.02 µM
[24]
  ED50: 2.51 µM
[25]
  ED50: 0.116 µM
[26]
  ED50: 0.0082 µM
[27]
  ED50: 0.0363 µM
[28]
  ED50: 0.00101 µM
[29]
  ED50: 16.7 µM
[30]
  ED50: 0.153 µM
[31]
  ED50: 383 µM
[32]
  ED50: 13200 µM
[33]
  ED50: 0.0171 µM
[34]
  ED50: 104 µM
[35]
  ED50: 0.595 µM
[36]
  ED50: 0.0178 µM
[37]
  ED50: 0.0602 µM
Fascin (Homo sapiens)
  ED50: 0.348 µM
[38]
  ED50: 0.345 µM
[39]
  ED50: 0.002 µM
[40]
  ED50: 2.82 µM
[41]
  ED50: 7.91 µM
[42]
  ED50: 1.36 µM
[43]
  ED50: 0.254 µM
